The numbers were not newly measured in patent US20110144047A1, “COMBINED METHOD FOR PREDICTING THE RESPONSE TO AN ANTI-CANCER THERAPY” (DAKO DENMARK A/S, priority 2008, published 2011), which cites them from elsewhere.

For this data set, the system named is murine fibro sarcoma cells derived from TIMP-1 gene-deficient mice. The following applies: in vitro; previously published by the inventors.

For `COc1cc([C@@H]2c3cc4c(cc3[C@@H](O[C@@H]3O[C@@H]5CO[C@@H](C)O[C@H]5[C@H](O)[C@H]3O)[C@H]3COC(=O)[C@H]23)OCO4)cc(OC)c1O` [etoposide], the “sensitivity of TIMP-1 gene-deficient cells compared with wild-type cells expressing TIMP-1” value was “significantly more sensitive”.
